# In PubChem BioAssay AID1963427 (Molecular Pharmacology Branch, DTP, NCI, 2024):
# Where “and” joins values, the source holds several entries; their conditions need not be identical. Equal values may be shown once.
# Tested on: 317291-083-R-J1-PDC complex spheroid growth
# Assay: Anticancer human tumor 317291-083-R-J1-PDC patient-derived soft tissue sarcoma cell line growth inhibition [Asc]
# Conditions: for viability, T/C: stronger effect = lower value
# Method: Multicellular complex tumor spheroid response to apoptosis pathway targeting inhibitors Alrizomadlin, Pelcitoclax, and Dasminapant in combination with a variety of drugs and investigational agents in selected tumor cell lines
# The MDM2 inhibitor alrizomadlin, the Bcl-2/Bcl-xL inhibitor pelcitoclax, and the IAPs inhibitor dasminapant were evaluated both individually and in combination with standard of care and investigational anticancer small molecules within a complex spheroid model of solid tumors. . Complex spheroids include a stromal component modeled by human endothelial cells (HUVEC) and fibroblasts modeled by human mesenchymal stem cells (MSCs). The concentration ranges selected for each drug and investigational agent were based upon clinically achievable concentrations if the clinical Cmax of the agent was known.
# Compounds. The drugs and investigational agents: alrizomadlin (APG-115; NSC831270), pelcitoclax (APG-1252; NSC835773), dasminapant (APG-1387;NSC834197), TAK-243 (NSC785004), copanlisib (NSC809693), olaparib (NSC753686), talazoparib (NSC767125), cobimetinib (NSC 768068), eltanexor (KPT-8602, NSC 794443), abemaciclib (NSC 768073), sotorasib (NSC818433), adagrasib (NSC 831453), MRTX-1133 (NSC 836407), Iadademestat (ORY1001, NSC 806812), and RMC-4630 (NSC839698), were obtained from the NCI Developmental Therapeutics Program Chemical Repository. The FDA-approved anticancer drug set is available from the Developmental Therapeutics Program at https://dtp.cancer.gov/organization/dscb/obtaining/available plates.htm. […] The stock solutions were prepared in dimethyl sulfoxide (DMSO, Sigma-Aldrich, St. Louis, MO, cat. D2650) at 800-fold the tested concentration and stored at -70 degrees C prior to their use. All drugs and investigational agents were tested over a range starting from a high concentration at or near the clinical Cmax and decreasing in half-log increments. If the clinical Cmax for an agent had not been determined, the highest concentration tested was 10 microM.
# The patient-derived cancer (PDC) cell lines include five colon adenocarcinomas: 186277-243-T-J2-PDC, 616215-338-R-J1-PDC, 439559-082-T-J2-PDC, 463943-066-T-J2-PDC, and 519858-162-T-J1-PDC; three pancreatic carcinomas: 323965-272-R-J2-PDC, 521955-158-R6-J3-PDC, and 521955-158-R2-J5-PDC; two uterine sarcomas: 327498-152-R-J2-PDC and 993429-296-R-J1-PDC; two rhabdomyosarcomas: 755483-174-R-J1-PDC and 772245-204-R-J1-PDC; two soft tissue sarcomas: 126254-015-R-J1-PDC and 494315-158-R-J1-PDC; two malignant fibrous histiocytomas: 317291-083-R-J1-PDC and 596521-263-R-J1-PDC; two breast carcinomas: 171881-019-R-J1-PDC and 885512-296-R-J2-PDC; and one ovarian carcinoma: 6556581-035-R-J-PDC were obtained from the NCI PDMR, (https://pdmr.cancer.gov). The established cell lines HSSY-2 synovial sarcoma (RRID:CVCL 8719), SYO-1 synovial sarcoma (RRID:CVCL_7146), MPNST malignant peripheral neural sheath tumor were obtained from the Sloan Kettering Institute. The following established cell lines were purchased from the American Type Culture Collection (ATCC, Manassas, VA), Sor the received from the NCI repository:, PANC-1 pancreatic carcinoma (CRL-1469, RRID:CVCL_0480), OVCAR-5 ovarian carcinoma (RRID:CVCL_1628), OVCAR-8 ovarian carcinoma (RRID:CVCL_1629), , MCF-7 breast carcinoma (CRL-12584, RRID:CVCL_0031), MDA-MB-231 breast carcinoma (CRL-12532, RRID:CVCL_0062), NCI-H1876 small cell lung carcinoma (CRL-5902, RRID:CVCL_1503), NCI-H510A small cell lung carcinoma (HTB-184, RRID:CVCL_1565), NCI-H1417 (CRL-5869, RRID:CVCL_1469), and NCI-H196 small cell lung carcinoma (CRL-5823, RRID:CVCL_1509). Dr. Peter Houghton (Greehey Children's Cancer Research Institute, University of Texas Health Science Center, San Antonio, TX) provided Rh-18 rhabdomyosarcoma (RRID:CVCL_1659). Pooled donor human umbilical vein endothelial cells (HUVEC, Lonza, cat. CC-2519) and human mesenchymal stem cells (hMSC, Lonza, cat. PT-2501) were purchased from Lonza (Walkersville, MD).
# Cell Culture. […]
# 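Also: compound exposure lasted seven days after spheroids formed for three days.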
# 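For viability, T/C in this document: 100% = DMSO vehicle control wells.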
Structure (SMILES),"viability, T/C (compound 0.0316 µM)","viability, T/C (compound 0.1 µM)","viability, T/C (compound 0.316 µM)","viability, T/C (compound 1 µM)","viability, T/C (compound 3.16 µM)","viability, T/C (compound 10 µM)",IC50 (curve of compound),"viability, T/C (compound 0.0949 µM)","viability, T/C (compound 0.3 µM)","viability, T/C (compound 3 µM)","IC50 (compound alone, run of 11/07/2022)","viability, T/C (compound 0.00316 µM)","viability, T/C (compound 0.01 µM)"
C#Cc1c(F)ccc2cc(O)cc(-c3ncc4c(N5CC6CCC(C5)N6)nc(OCC56CCCN5CC(F)C6)nc4c3F)c12 (configuration not stated),86.9% and 91% and 105%,84.9% and 99.4% and 85.2%,87.6% and 108% and 105%,97.5% and 103% and 102%,95.8% and 90.8% and 94.6%,56.1% and 72.7% and 85.2%,> 10 µM,–,–,–,–,–,–
C=C(F)C(=O)N1CCN(c2nc(OCC3CCCN3C)nc3c2CCN(c2cccc4cccc(Cl)c24)C3)CC1CC#N (configuration not stated),83.4% and 107% (2×),76.7% and 88.1% and 99.1%,93.2% and 95.1% and 113%,89% and 89.6% and 87.7%,47% and 39% and 55.3%,0.16% and 0.29% and 0.23%,2.89 µM and 2.46 µM and 3.47 µM,–,–,–,–,–,–
C=CC(=O)N1CCN(c2nc(=O)n(-c3c(C)ccnc3C(C)C)c3nc(-c4c(O)cccc4F)c(F)cc23)C(C)C1 (configuration not stated),94.7% and 115% and 91.3%,116% and 91.4% and 84%,97.3% and 95.1% and 99.8%,117% and 90.1% and 95.4%,92.4% and 89.8% and 78.8%,61% and 73.1% and 78%,> 10 µM,–,–,–,–,–,–
CCN1C(C(=O)NC23CCC(C(=O)O)(CC2)CC3)C(c2cccc(Cl)c2F)C2(C(=O)Nc3cc(Cl)ccc32)C12CCCCC2 (configuration not stated),–,–,–,–,–,–,> 3 µM,96.6% [middle of 9 runs],95.2% [middle of 9 runs],87.6% [middle of 9 runs],> 3 µM,–,–
CCN1CCN(Cc2ccc(Nc3ncc(F)c(-c4cc(F)c5nc(C)n(C(C)C)c5c4)n3)nc2)CC1,99.1% and 98.7% and 102%,101% and 97.3% and 89.7%,72.4% and 84.1% and 82.4%,49.5% and 82.8% and 50.7%,–,–,> 1 µM,–,–,–,–,91.8% and 94.4% and 104%,93.8% and 95.1% (2×)
CNC(C)C(=O)NC1CN(S(=O)(=O)c2cccc(S(=O)(=O)N3CCC4CCC(C(=O)NC(c5ccccc5)c5ccccc5)N4C(=O)C(NC(=O)C(C)NC)C3)c2)CCC2CCC(C(=O)NC(c3ccccc3)c3ccccc3)N2C1=O (configuration not stated),72.8% [middle of 9 runs],–,–,–,–,–,0.254 µM and 0.416 µM,–,–,–,–,–,–
COc1c(OCCCN2CCOCC2)ccc2c3n(c(=NC(=O)c4cnc(N)nc4)nc12)CCN3,73.5% and 93.8% and 80.6%,49.4% and 56.9% and 59.9%,25.9% and 37.9% and 33.4%,12.6% and 21.9% and 15.6%,–,–,0.149 µM and 0.158 µM and 0.103 µM,–,–,–,–,92% and 97.6% and 96.2%,90.5% and 100% and 93.7%
